{
  "source": "patent US8334238B2",
  "about": "“Multiparameter FACS assays to detect alterations in cellular parameters and to screen small molecule libraries” (Rigel, Inc., priority 1998, dated 2012)",
  "key": {"MC-9 cells [1]": {"test_system": "MC-9 cells", "assay": "Exocytic light scatter changes on the flow cytometer", "type": "cell-based", "experimental": "(§1) Experiments were carried out in modified tyrodes buffer (MD which consisted of NaCl (137 mM), KCl (2.7 mM), CaCl2 (1.8 mM), MgCl2 (1 mM), Glucose (5.6 mM), Hepes (20 mM, pH 7.4), and bovine serum albumin (0.1%). MC-9 cells were spun at 400×g and the media was aspirated. The cells were then washed with MT, respun/aspirated and taken up in MT at a density of 5×10^6 cells/ml. Cells were then treated with either DMSO or ionophore for 30 minutes (or the time was varied if a timecourse). The cells were then pelleted with the supernatant collected for enzymatic analysis; in some cases, the cells then processed for flow cytometry. All stimulations were carried out at 37° C. Stimulations of RBL-2H3 cells were carried out by washing the adherent cells one time in MT and then adding warmed MT (1 ml/10^6 cells) containing the stimulus. The cells were incubated at 37° C. for 30 minutes and the supernatant was harvested for further analysis. In some of the examples, (Examples 4-6), the plate bound cells were stained for annexin and then removed from the flask using No-Zyme (Collaborative Research, Inc.) for further processing for flow cytometry. For stimulation of RBL-2H3 cells with antigen crosslinking the cells were incubated overnight with IgE anti-DNP (Sigma Chemical Co.) in complete media at a concentration of 50 ng/ml. The following day they were washed one time in MT and stimulated as described above with the exception that bovine serum albumin coupled to DNP was used as the stimulus at 100 ng/ml.\n(§2) Cells processed for stimulation and staining were taken up in MT on ice and filtered through a 100 μm filter prior to cytometry. Cells were analyzed using a FACSCAN (Becton Dickinson Inc., laser line […]) or a Mo-Flo (Cytomation, Inc., laser lines 350 nM broadband (UV), 488 nm, and 647 nm) Cytometer. Cells were sorted, if desired using the Mo-Flo.\n(§3) The cells were prepared as described in Example 2, and light scatter properties were determined."}, "RBL-2H3 cells [2]": {"test_system": "RBL-2H3 cells", "assay": "Exocytic light scatter changes on the flow cytometer", "type": "cell-based", "conditions": "0.5 ug/ml, 0 and 10 minutes", "experimental": "as §1, §2, §3"}, "MC-9 cells [3]": {"test_system": "MC-9 cells", "assay": "In situ enzymology (ELF-97 glucuronide, cell surface glucuronidase) by FACS", "type": "cell-based", "conditions": "0.5 μg/ml vs DMSO", "experimental": "MC-9 cells were stimulated for exocytosis as described above and then incubated in enyme substrate buffer (BSA free MT, pH 4.3-7.4 range) containing the substrate ELF-97 Glucuronide (250 NM) for 15 minutes at 37° C. The cells were washed one time in MT and then viewed in the microscope or on the flowcytometer. Further methodologies are described in the preceding examples."}, "MC-9 cells [4]": {"test_system": "MC-9 cells", "assay": "Population based exocytic enzyme activity assay on cell supernatant", "conditions": "2 μm, 30 minutes, vs DMSO", "experimental": "(§4) Experiments were carried out in modified tyrodes buffer (MD which consisted of NaCl (137 mM), KCl (2.7 mM), CaCl2 (1.8 mM), MgCl2 (1 mM), Glucose (5.6 mM), Hepes (20 mM, pH 7.4), and bovine serum albumin (0.1%). MC-9 cells were spun at 400×g and the media was aspirated. The cells were then washed with MT, respun/aspirated and taken up in MT at a density of 5×10^6 cells/ml. Cells were then treated with either DMSO or ionophore for 30 minutes (or the time was varied if a timecourse). The cells were then pelleted with the supernatant collected for enzymatic analysis; in some cases, the cells then processed for flow cytometry. All stimulations were carried out at 37° C. Stimulations of RBL-2H3 cells were carried out by washing the adherent cells one time in MT and then adding warmed MT (1 ml/10^6 cells) containing the stimulus. The cells were incubated at 37° C. for 30 minutes and the supernatant was harvested for further analysis. […]\n(§5) Enzyme assays were carried out on cell supernatants and pellets following exocytic stimulation. […] The plate was read on a fluorescence plate reader (Wallac, Inc.) using excitation 380 nm/emission 440 nm filters every 3 minutes for five times to obtain an enzymatic rate; analyses were carried out in triplicate."}, "MC-9 cells [5]": {"test_system": "MC-9 cells", "assay": "Styryl dye (FM 1-43 / FM 4-64) uptake exocytosis assay by FACS", "type": "cell-based", "conditions": "2 μM vs DMSO", "experimental": "as §4, with “analysis. In some of the examples, (Examples 4-6), the plate bound cells were stained for annexin and then removed from the flask using No-Zyme (Collaborative Research, Inc.) for further processing for flow cytometry.” for “analysis.”\nThe cells were prepared as described above. […] The cells were then ready for analysis in the flow cytometer (see Example 2)."}, "MC-9 cells [6]": {"test_system": "MC-9 cells", "assay": "Annexin-V staining exocytosis assay by FACS", "type": "cell-based", "experimental": "as §1\nCells post exocytic stimulus were stained with annexin-PITC at a dilution of 1/100 in MT for 10 minutes at room temperature. The cells were then washed one time in MT, taken up in MT and viewed in the flow cytometer or microscope. For indirect labeling, annexin-biotin was added to the MT during the stimulation procedure at a dilution of 1/200. The cells were then pelleted in ice cold MT, spun, aspirated, and taken up in ice cold MT with streptavidin-APC at a dilution of 1/200 and kept on ice for 15 minutes. […]"}, "MC-9 cells [7]": {"test_system": "MC-9 cells", "assay": "Propidium iodide staining (plasma membrane integrity) by FACS", "type": "cell-based", "conditions": "2 μm vs DMSO", "experimental": "as §1, with “The following day they were washed one time in MT and stimulated as described above with the exception that bovine serum albumin coupled to DNP was used as the stimulus at 100 ng/ml.” left out"}, "MC-9 cells [8]": {"test_system": "MC-9 cells", "assay": "Lysotracker green release from granules by FACS", "type": "cell-based", "experimental": "Lysotracker dyes (blue, green, and red) were loaded into cells by diluting them to a final concentration of 1 μM in complete media and incubating the cells for 60 minutes at 37° C. in their presence. After loading, the cells were washed two times in MT and then were ready for further analysis or stimulation. Further methodologies are described in the preceding examples."}, "RBL-2H3 cells [9]": {"test_system": "RBL-2H3 cells", "assay": "Population based exocytic enzyme activity assay on cell supernatant, antigen crosslinking", "conditions": "RBL-2H3 sensitized 16 hours with varying IgE anti-DNP, stimulated with increasing BSA-DNP", "experimental": "as §4, §5"}, "RBL-2H3 cells [10]": {"test_system": "RBL-2H3 cells", "assay": "Annexin-V-FITC staining of exocytic granules, antigen crosslinking, microscopy", "type": "cell-based", "conditions": "IgE-sensitized RBL-2H3 cells, 100 ng/ml vs MT buffer only", "experimental": "as §4, with “analysis. In some of the examples, (Examples 4-6), the plate bound cells were stained for annexin and then removed from the flask using No-Zyme (Collaborative Research, Inc.) for further processing for flow cytometry.” for “analysis.”\nCells post stimulation or staining were mounted onto glass slides and coverslipped; these were directly visualized by brighffield and fluorescence microscopy on an inverted microscope (TE300, Nikon) using standard BFP, FITC, or TRITC filter sets. […]"}, "[11]": {"conditions": "MC-9 cells, 0, 1, 2, 3 μM, four-parameter analysis"}},
  "data": [
    {"compound": "CNc1ccc2oc(C[C@H]3O[C@@]4(CC[C@H]3C)O[C@H]([C@H](C)C(=O)c3ccc[nH]3)[C@H](C)C[C@H]4C)nc2c1C(=O)O", "note": "[A23187]", "values": [
      {"measurement": "light scatter changes (side scatter vs. forward scatter)", "setting": "MC-9 cells [1]; MC-9 cells, 0.5 ug/ml, 0, 5 and 30 minutes", "result": "Time dependent scatter changes are evident"},
      {"measurement": "light scatter changes (side scatter vs. forward scatter)", "setting": "RBL-2H3 cells [2]", "result": "Time dependent scatter changes are evident"},
      {"measurement": "ELF-97 signal (cell surface enzymatic precipitate, in situ glucuronidase activity)", "setting": "MC-9 cells [3]", "result": "significant increase in signal"}
    ]},
    {"compound": "C[C@H](CCC(=O)O)C[C@H](C)C[C@H](C)C(=O)/C=C(\\O)[C@H](C)C[C@H](C)C/C=C/[C@@H](C)[C@@H](O)[C@@H](C)[C@@H](O)C[C@@H]1CC[C@@](C)([C@H]2CC[C@@](C)([C@@H](C)O)O2)O1", "note": "[ionomycin]", "values": [
      {"measurement": "glucuronidase or hexosaminidase activity in the supernatant", "setting": "MC-9 cells [4]", "result": "Stimulated release of granule enzymatic activity is evident"},
      {"measurement": "forward scatter", "setting": "MC-9 cells [1]; [11]", "result": "increases"},
      {"measurement": "side scatter", "setting": "MC-9 cells [1]; [11]", "result": "decreases"},
      {"measurement": "forward and side scatter", "setting": "MC-9 cells [1]; MC-9 cells, 2 μM vs DMSO, 30 minute timepoint, data not shown", "result": "stimulation dependent changes in both parameters"},
      {"measurement": "styryl dye fluorescence intensity (FM 4-64 and FM 1-43)", "setting": "MC-9 cells [5]; channels 1 and 3", "result": "clear stimulation dependent increase"},
      {"measurement": "FM 1-43 signal", "setting": "MC-9 cells [5]; four-parameter analysis, data not shown", "result": "stimulation dependent increases in both signals"},
      {"measurement": "annexin-V-APC signal", "setting": "MC-9 cells [6]; [11]", "result": "becomes greater"},
      {"measurement": "annexin-V-APC signal", "setting": "MC-9 cells [6]; MC-9 cells, 2 μM vs DMSO, four-parameter analysis with FM 1-43, data not shown", "result": "stimulation dependent increases in both signals"},
      {"measurement": "annexin-V-FITC binding", "setting": "MC-9 cells [6]; MC-9 cells, 2 μm vs DMSO", "result": "significant increase"},
      {"measurement": "PI staining", "setting": "MC-9 cells [7]", "result": "no significant increase"},
      {"measurement": "Lysotracker green fluorescence intensity, channel 1", "setting": "MC-9 cells [8]; MC-9 cells loaded 1 hour, 2 μM vs DMSO", "result": "significant loss of signal"},
      {"measurement": "Lysotracker green signal", "setting": "MC-9 cells [8]; [11]", "result": "decreases"}
    ]},
    {"compound": "BSA-DNP: bovine serum albumin coupled to DNP, antigen used as the stimulus", "values": [
      {"measurement": "supernatant hexosaminidase activity", "setting": "RBL-2H3 cells [9]", "result": "dose response"},
      {"measurement": "annexin-V-FITC staining of cell surface granules", "setting": "RBL-2H3 cells [10]", "result": "Numerous cell surface granules are stained"}
    ]}
  ]
}
